Source: ChEMBL document CHEMBL1135114, “Syntheses and bioactivities of novel carbamates combining platelet activating factor (PAF) receptor antagonist with thromboxane synthase inhibitor (TxSI)” (Bioorg Med Chem Lett, 2002)

Key:
Oryctolagus cuniculus = species on record: Oryctolagus cuniculus; test: The compound was tested for inhibition of Platelet activating factor (PAF) induced platelet aggregation in rabbit platelet rich plasma; type: functional
Thromboxane-A synthase = molecular target: T1, Thromboxane-A synthase (Homo sapiens, UniProt P24557); test: Thromboxane A2 synthase inhibitory activity was measured from inhibition of thromboxane B2 production in human platelet microsomes; set-up: species or system Microsome
T1 sequence (P24557 whole entry): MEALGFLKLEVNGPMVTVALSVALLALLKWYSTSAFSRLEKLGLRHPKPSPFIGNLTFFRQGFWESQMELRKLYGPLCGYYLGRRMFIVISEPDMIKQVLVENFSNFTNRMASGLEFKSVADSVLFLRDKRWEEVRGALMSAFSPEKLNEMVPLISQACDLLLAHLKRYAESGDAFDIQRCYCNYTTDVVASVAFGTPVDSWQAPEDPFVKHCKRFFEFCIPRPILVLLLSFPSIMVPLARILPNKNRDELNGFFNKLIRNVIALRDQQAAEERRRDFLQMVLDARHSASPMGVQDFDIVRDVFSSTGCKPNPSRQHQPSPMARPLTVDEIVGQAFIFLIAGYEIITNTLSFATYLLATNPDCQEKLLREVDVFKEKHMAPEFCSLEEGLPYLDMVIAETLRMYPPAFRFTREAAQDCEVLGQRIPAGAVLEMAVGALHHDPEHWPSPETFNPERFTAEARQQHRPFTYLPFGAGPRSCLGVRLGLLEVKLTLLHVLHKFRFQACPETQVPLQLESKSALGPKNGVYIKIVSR

Rattus norvegicus [1] = test: Inhibition of serum TXB2 production in the rats after peroral administration; type: functional; details: po
Mus musculus [2] = test: Ability to protect mice from the lethal effect of Platelet activating factor on iv administration of compound; type: functional
Mus musculus [3] = test: Ability to protect mice from the lethal effect of Platelet activating factor on po administration of compound; type: functional
Rattus norvegicus [4] = test: Inhibition of serum TXB2 production in the rats after intravenous administration; type: functional

Q: What does the source list for `CCOC(=O)CCCC/[N+]([O-])=C(/c1cccnc1)c1cccc(COC(=O)N2CCc3c(sc4c3C(c3ccccc3Cl)=NC(C)c3nnc(C)n3-4)C2)c1` (stereo not drawn)?
A: IC50 (Oryctolagus cuniculus): 41 nM; IC50 (Thromboxane-A synthase): 69 nM; ED50 (Rattus norvegicus [1]): > 10 mg/kg; ED50 (Mus musculus [2]): 0.2 mg/kg; ED50 (Mus musculus [3]): > 10 mg/kg; ED50 (Rattus norvegicus [4]): 0.1 mg/kg

Q: For `O=C(O)/C=C/c1ccc(Cn2ccnc2)cc1` [OZAGREL], which ED50 (Rattus norvegicus [1]) is on record?
A: 0.1 mg/kg

Q: And the ED50 (Rattus norvegicus [4])?
A: 0.02 mg/kg

Q: How did the IC50 (Oryctolagus cuniculus) turn out when `CCOC(=O)CCCC/[N+]([O-])=C(/c1cccnc1)c1cccc(CN2CCc3c(sc4c3C(c3ccccc3Cl)=NCc3nnc(C)n3-4)C2)c1` was run?
A: 190 nM

Q: What about the IC50 (Thromboxane-A synthase) of the same compound?
A: 67 nM

Q: And the ED50 (Rattus norvegicus [1])?
A: > 10 mg/kg

Q: What about the ED50 (Mus musculus [2]) of the same compound?
A: 0.8 mg/kg

Q: What about the ED50 (Mus musculus [3]) of the same compound?
A: > 10 mg/kg

Q: What about the ED50 (Rattus norvegicus [4]) of the same compound?
A: 0.1 mg/kg

Q: How did the IC50 (Oryctolagus cuniculus) turn out when `CCOC(=O)CCCC/[N+]([O-])=C(/c1cccnc1)c1cccc(COC(=O)N2CCc3c(sc4c3C(c3ccccc3Cl)=NCc3nnc(C)n3-4)C2)c1` was run?
A: 139 nM

Q: And the IC50 (Thromboxane-A synthase)?
A: 62 nM

Q: What about the ED50 (Rattus norvegicus [1]) of the same compound?
A: > 10 mg/kg

Q: And the ED50 (Mus musculus [2])?
A: 0.7 mg/kg

Q: What about the ED50 (Mus musculus [3]) of the same compound?
A: > 10 mg/kg

Q: And the ED50 (Rattus norvegicus [4])?
A: 0.1 mg/kg

Q: Which results are given for `O=C(O)CCCC/C=C(/c1ccccc1)c1cccnc1` [ISBOGREL]?
A: ED50 (Rattus norvegicus [1]): 0.05 mg/kg; ED50 (Rattus norvegicus [4]): 0.01 mg/kg

Q: Which results are given for `CCOC(=O)CCCC/[N+]([O-])=C(/c1cccnc1)c1cccc(CN2CCc3c(sc4c3C(c3ccccc3Cl)=NC(C)c3nnc(C)n3-4)C2)c1` (stereo not drawn)?
A: IC50 (Oryctolagus cuniculus): 47 nM; IC50 (Thromboxane-A synthase): 60 nM; ED50 (Rattus norvegicus [1]): > 10 mg/kg; ED50 (Mus musculus [2]): 0.2 mg/kg; ED50 (Mus musculus [3]): > 10 mg/kg; ED50 (Rattus norvegicus [4]): 0.1 mg/kg
